Measurements reported in the supplement of paper PMC10733146.

Tests used:
Assay in all cases: viability relative to DMSO control (fraction); higher = less drug effect (more viable cells)
Conditions in all cases: 48 h
[1] = test system: primary AML patient cells (S091)
Summary of the method: (§1)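 Cells were incubated for 48 h at 37 °C and 5% CO2 in RPMI-1640 with penicillin/streptomycin, L-glutamine and human serum, at 4 × 10^4 cells per well in 384-well plates with compounds pre-plated at five concentrations, one well each. These were primary mononuclear tumour cells, fresh or cryopreserved, Ficoll-isolated from blood or bone marrow or obtained from processed lymph node. Viability values are CellTiter-Glo luminescence relative to the median of 16 inner DMSO wells.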

[2] = test system: primary AML patient cells (S002)
Summary of the method: as §1

[3] = test system: primary T-PLL patient cells (S008)
Summary of the method: as §1

[4] = test system: primary AML patient cells (S025)
Summary of the method: as §1

[5] = test system: primary FL patient cells (S022)
Summary of the method: as §1

[6] = test system: primary AML patient cells (S037)
Summary of the method: as §1

[7] = test system: primary AML patient cells (S019)
Summary of the method: as §1

[8] = test system: primary AML patient cells (S089)
Summary of the method: as §1

[9] = test system: primary AML patient cells (S021)
Summary of the method: as §1

[10] = test system: primary ALL patient cells (S048)
Summary of the method: as §1

[11] = test system: primary MCL patient cells (S068)
Summary of the method: as §1

[12] = test system: primary AML patient cells (S011)
Summary of the method: as §1

[13] = test system: primary AML patient cells (S081)
Summary of the method: as §1

[14] = test system: primary AML patient cells (S055)
Summary of the method: as §1

In the case of `O=C(Nc1cccc(C(F)(F)F)c1)Nc1cc(S(=O)(=O)NC2CC2)ccc1-c1ccsc1` [AGI-6780], the viability ([1]; 0.024 µM) is reported as 1.02, the viability ([1]; 0.12 µM) is reported as 1.05 and the viability ([1]; 0.6 µM) is reported as 0.975. For the same compound, the viability ([1]; 3 µM) was 0.989, the viability ([1]; 15 µM) was 0.924 and the viability ([2]; 0.024 µM) was 0.785. The viability ([2]; 0.12 µM) was 0.822, the viability ([2]; 0.6 µM) was 0.816 and the viability ([2]; 3 µM) was 0.798. The viability ([2]; 15 µM) was 0.689, the viability ([3]; 0.024 µM) was 0.865 and the viability ([3]; 0.12 µM) was 0.979. It also gave a viability ([3]; 0.6 µM) of 0.937, a viability ([3]; 3 µM) of 0.863 and a viability ([3]; 15 µM) of 0.825. The viability ([4]; 0.024 µM) was 0.949, the viability ([4]; 0.12 µM) was 1.06 and the viability ([4]; 0.6 µM) was 0.978. For the same compound, the viability ([4]; 3 µM) was 0.905, the viability ([4]; 15 µM) was 0.839 and the viability ([5]; 0.024 µM) was 0.826. For the same compound, the viability ([5]; 0.12 µM) was 0.782, the viability ([5]; 0.6 µM) was 0.821 and the viability ([5]; 3 µM) was 0.835. For the same compound, the viability ([5]; 15 µM) was 0.775, the viability ([6]; 0.024 µM) was 0.971 and the viability ([6]; 0.12 µM) was 1.02. For the same compound, the viability ([6]; 0.6 µM) was 0.955, the viability ([6]; 3 µM) was 0.877 and the viability ([6]; 15 µM) was 0.889. The viability ([7]; 0.024 µM) was 1.17, the viability ([7]; 0.12 µM) was 1.26 and the viability ([7]; 0.6 µM) was 1.27. The viability ([7]; 3 µM) was 1.13, the viability ([7]; 15 µM) was 1.18 and the viability ([8]; 0.024 µM) was 0.717. The viability ([8]; 0.12 µM) was 0.925, the viability ([8]; 0.6 µM) was 0.822 and the viability ([8]; 3 µM) was 0.84. The viability ([8]; 15 µM) was 0.637, the viability ([9]; 0.024 µM) was 0.881 and the viability ([9]; 0.12 µM) was 0.894. The viability ([9]; 0.6 µM) was 0.878, the viability ([9]; 3 µM) was 0.891 and the viability ([9]; 15 µM) was 0.676. For the same compound, the viability ([10]; 0.024 µM) was 0.7, the viability ([10]; 0.12 µM) was 0.636 and the viability ([10]; 0.6 µM) was 0.599. It also gave a viability ([10]; 3 µM) of 0.622, a viability ([10]; 15 µM) of 0.61 and a viability ([11]; 0.024 µM) of 0.751. For the same compound, the viability ([11]; 0.12 µM) was 0.809, the viability ([11]; 0.6 µM) was 0.786 and the viability ([11]; 3 µM) was 0.722. It also gave a viability ([11]; 15 µM) of 0.798, a viability ([12]; 0.024 µM) of 0.76 and a viability ([12]; 0.12 µM) of 0.761. The viability ([12]; 0.6 µM) was 0.802, the viability ([12]; 3 µM) was 0.778 and the viability ([12]; 15 µM) was 0.666. The viability ([13]; 0.024 µM) was 0.829, the viability ([13]; 0.12 µM) was 0.956 and the viability ([13]; 0.6 µM) was 0.878. The viability ([13]; 3 µM) was 0.756, the viability ([13]; 15 µM) was 0.841 and the viability ([14]; 0.024 µM) was 0.912. It also gave a viability ([14]; 0.12 µM) of 0.919, a viability ([14]; 0.6 µM) of 0.874 and a viability ([14]; 3 µM) of 0.859. For the same compound, the viability ([14]; 15 µM) was 0.85.
